Measured values: US11419335B2, “N-arylated analogues and uses thereof” (University of Florida Research Foundation, Incorporated, priority 2016, dated 2022)
In brackets after ≈: the same amount, converted by molar mass. Like-named read-outs stand apart in the source and are kept apart here. Marks after values point to notes of the source that are not given here. Values belong to the compound of their own block, whether it stands above or below them.

Columns and labels:
C. albicans SC5314 = assay: Fungal MIC susceptibility assay, C. albicans; assay type: cell-based, Candida albicans; conditions: Table 4; antifungal
Protocol: (§1) Fungal minimum inhibition concentrations (MICs) were determined using standard microdilution methods according to the Clinical and Laboratory Standards Institute document M27-A3. The test compound concentration ranged from 0.01 to 100 μM. Amphotericin B (AmB) and itraconazole (ITC) (Fisher Scientific) were included as positive controls. DMSO, the vehicle control, was used at ≤1% v/v for these experiments. The fungal M27-A3 standard MIC assay protocol requires the following inoculum preparation protocol: The organisms were cultured onto PDA medium at 35° C. The inoculum is prepared by picking five colonies from 24-hour old culture of Candida spp. or 48-hour old culture of C. neoformans. The inoculum was suspended in 5 ml of sterile water, the resulting suspension was vortexed for 15 seconds and the cell density adjusted (by adding more sterile water) to an OD530=0.30, which yields a suspension of 1×10^6 to 5×10^6 cells per mL. The suspension was diluted 50 times and then 20 times using RPMI 1640 medium to obtain the two times test inoculum (1×10^3 to 5×10^3 cells per mL). The following steps are the same with the standard bacterial MIC protocol using 96-well plates. NOTE: RPMI 1640 medium was used in the fungal MIC assay (for both cell inoculum and compound dilution).

C. neoformans ATCC 66031 = assay: Fungal MIC susceptibility assay, C. neoformans; assay type: cell-based; conditions: Table 4; antifungal
Protocol: as §1

MRSE ATCC 35984 biofilms = assay: Calgary Biofilm Device assay (MBC/MBEC), MRSE 35984; assay type: cell-based, Staphylococcus epidermidis; conditions: Table 2, CBD assay
Protocol: (§2) The lid of the Calgary device was then removed, washed and transferred to another 96-well plate containing 2-fold serial dilutions of the test compounds (the “challenge plate”). The total volume of media with compound in each well in the challenge plate is 150 μL. […] The lid was then removed from the challenge plate and MBC/MBEC values were determined using different final assays. […] The MBC values were determined as the concentration giving a lack of visible bacterial growth (i.e., turbidity). […] In select experiments, pegs from the Calgary device were removed from lead biofilm eradicators after final incubation, sonicated for 30 minutes in PBS and plated out to determine biofilm cell killing of lead biofilm-eradicating agents (i.e., colony forming unit per milliliter, CFU/mL).
(§3) Using a Calgary Biofilm Device, bacterial biofilms are established on pegs suspended to the bottom of a 96-well plate lid. Following biofilm establishment on lid pegs, lids are then transferred to new 96-well plates containing serial dilutions of test compound and allowed to incubate. After compound treatment, 96-well plate lids with pegs are once again transferred to 96-well plates containing fresh media. During this final phase of the assay, viable biofilms will grow and disperse planktonic cells into the media where they will grow and give a turbid well result. Conversely, wells that have no growth are a result of pegs that had eradicated bacterial biofilms. The lowest concentration at which no turbidity is observed is the minimum biofilm eradication concentration (MBEC). Using the Calgary Biofilm Device, both minimum biofilm eradication concentrations and minimum bactericidal concentrations (MBC) for planktonic bacterial can be determined using one assay from a single bacterial culture (FIG. 3A).

[1] = tested on: vancomycin-resistant Enterococcus faecium (VRE strain ATCC 700221); assay: MIC broth microdilution, VRE 700221; assay type: cell-based
Protocol: (§4) The minimum inhibitory concentration (MIC) for each tested compound was determined by the broth microdilution method as recommended by the Clinical and Laboratory Standards Institute (CLSI). In a 96-well plate, eleven two-fold serial dilutions of each compound were made in a final volume of 100 μL Luria Broth. Each well was inoculated with ˜10^5 bacterial cells at the initial time of incubation, prepared from a fresh log phase culture (OD600 of 0.5 to 1.0 depending on bacterial strain). The MIC was defined as the lowest concentration of compound that prevented bacterial growth after incubating 16 to 18 hours at 37° C. (MIC values were supported by spectrophotometric readings at OD600). DMSO served as our vehicle and negative control in each microdilution MIC assay. DMSO was serially diluted with a top concentration of 1% v/v.
as §4, with “for each compound was” for “for each tested compound was”, “Standards Institute (CLSI).^6 In a” for “Standards Institute (CLSI). In a”, “concentration of test compound that” for “concentration of compound that”, “37° C. The concentration range tested for each compound during this study was 0.10 to 100 μM. DMSO served” for “37° C. (MIC values were supported by spectrophotometric readings at OD600). DMSO served”, “1% v/v. All MIC values were obtained from a minimum of three independent experiments.” for “1% v/v.”

[2] = tested on: human red blood cells (hRBC); assay: Hemolysis of red blood cells; assay type: cell-based
Protocol: The washing was repeated three times with the buffer. In a 96-well plate, test compounds were added to the buffer from DMSO stocks. […] The plate was then incubated for 1 hour at 37° C. After incubation, the plate was centrifuged for 5 minutes at 3,500 rpm. Then 80 μL of the supernatant was transferred to another 96-well plate and the optical density (OD) was read at 405 nm. DMSO served as our negative control (0% hemolysis) while Triton X served as our positive control (100% hemolysis). […] All reported data correspond to three independent experiments. Ten-point dose-response curves were generated in 96-well plates to determine 50% hemolysis (HC50 values) of red blood cells.
The washing was repeated three times with the buffer. In 96-well plate, the test compounds were added to the buffer. Then 50 μL of 2% of hRBCs in the buffer were added to the test plate to make the final concentrations ranging from 0.2 to 200 μM of each test compound. The plate was then incubated for 1 hour at 37° C. After incubation, the plate was centrifuged for 5 minutes at 3500 rpm and then 80 μL of the supernatant was transferred to another 96-well plate and the Optical Density (OD) was read at 405 nm. DMSO served as our negative control (0% haemolysis) and Triton X served as our positive control (100% haemolysis). The HC50 (concentration of test compound required to lyse red blood cells by 50%) was calculated by plotting the dose-response curve (not shown) with Graphpad Prism 6.0. All data were obtained from three independent haemolysis experiments.

[3] = tested on: Klebsiella pneumoniae (ATCC 13883); assay: MIC broth microdilution, K. pneumoniae 13883; assay type: cell-based
Protocol: as §4
as §4, with “for each compound was” for “for each tested compound was”, “Standards Institute (CLSI).^6 In a” for “Standards Institute (CLSI). In a”, “concentration of test compound that” for “concentration of compound that”, “37° C. The concentration range tested for each compound during this study was 0.10 to 100 μM. DMSO served” for “37° C. (MIC values were supported by spectrophotometric readings at OD600). DMSO served”, “1% v/v. All MIC values were obtained from a minimum of three independent experiments.” for “1% v/v.”

[4] = tested on: Pseudomonas aeruginosa (PAO1); assay: MIC broth microdilution, PAO1; assay type: cell-based
Protocol: as §4
as §4, with “for each compound was” for “for each tested compound was”, “Standards Institute (CLSI).^6 In a” for “Standards Institute (CLSI). In a”, “concentration of test compound that” for “concentration of compound that”, “37° C. The concentration range tested for each compound during this study was 0.10 to 100 μM. DMSO served” for “37° C. (MIC values were supported by spectrophotometric readings at OD600). DMSO served”, “1% v/v. All MIC values were obtained from a minimum of three independent experiments.” for “1% v/v.”

MRSA BAA-1707 = assay: MIC broth microdilution, MRSA BAA-1707; assay type: cell-based, Staphylococcus aureus
Protocol: as §4, with “The MIC was defined as the lowest concentration of compound that prevented bacterial growth after incubating 16 to 18 hours at 37° C.” left out
Each well was inoculated with ˜10^5 bacterial cells at the initial time of incubation, prepared from a fresh log phase culture (OD600 of 0.5 to 1.0 depending on bacterial strain). […] The concentration range tested for each compound during this study was 0.10 to 100 μM. DMSO served as our vehicle and negative control in each microdilution MIC assay. DMSO was serially diluted with a top concentration of 1% v/v. All MIC values were obtained from a minimum of three independent experiments.

VRE ATCC 700221 biofilms = assay: Calgary Biofilm Device assay (MBC/MBEC), VRE 700221; assay type: cell-based, Enterococcus faecium; conditions: Table 2, CBD assay
Protocol: as §2, §3

MRSA BAA-1707 biofilms = assay: Calgary Biofilm Device assay (MBC/MBEC), MRSA BAA-1707; assay type: cell-based, Staphylococcus aureus; conditions: Table 2, CBD assay
Protocol: as §2, §3

[5] = tested on: methicillin-resistant Staphylococcus aureus MRSA-2 (clinical isolate); assay: MIC broth microdilution, MRSA-2; assay type: cell-based
Protocol: as §4
as §4, with “for each compound was” for “for each tested compound was”, “Standards Institute (CLSI).^6 In a” for “Standards Institute (CLSI). In a”, “concentration of test compound that” for “concentration of compound that”, “37° C. The concentration range tested for each compound during this study was 0.10 to 100 μM. DMSO served” for “37° C. (MIC values were supported by spectrophotometric readings at OD600). DMSO served”, “1% v/v. All MIC values were obtained from a minimum of three independent experiments.” for “1% v/v.”

[6] = tested on: Escherichia coli clinical isolate (UAEC-1); assay: MIC broth microdilution, UAEC-1; assay type: cell-based
Protocol: as §4
as §4, with “for each compound was” for “for each tested compound was”, “Standards Institute (CLSI).^6 In a” for “Standards Institute (CLSI). In a”, “concentration of test compound that” for “concentration of compound that”, “37° C. The concentration range tested for each compound during this study was 0.10 to 100 μM. DMSO served” for “37° C. (MIC values were supported by spectrophotometric readings at OD600). DMSO served”, “1% v/v. All MIC values were obtained from a minimum of three independent experiments.” for “1% v/v.”

[7] = tested on: methicillin-resistant Staphylococcus epidermidis (MRSE strain ATCC 35984); assay: MIC broth microdilution, MRSE 35984; assay type: cell-based
Protocol: as §4
as §4, with “for each compound was” for “for each tested compound was”, “Standards Institute (CLSI).^6 In a” for “Standards Institute (CLSI). In a”, “concentration of test compound that” for “concentration of compound that”, “37° C. The concentration range tested for each compound during this study was 0.10 to 100 μM. DMSO served” for “37° C. (MIC values were supported by spectrophotometric readings at OD600). DMSO served”, “1% v/v. All MIC values were obtained from a minimum of three independent experiments.” for “1% v/v.”

[8] = tested on: Acinetobacter baumannii (ATCC 1794); assay: MIC broth microdilution, A. baumannii 1794; assay type: cell-based
Protocol: as §4
as §4, with “for each compound was” for “for each tested compound was”, “Standards Institute (CLSI).^6 In a” for “Standards Institute (CLSI). In a”, “concentration of test compound that” for “concentration of compound that”, “37° C. The concentration range tested for each compound during this study was 0.10 to 100 μM. DMSO served” for “37° C. (MIC values were supported by spectrophotometric readings at OD600). DMSO served”, “1% v/v. All MIC values were obtained from a minimum of three independent experiments.” for “1% v/v.”

MIC C. albicans SC5314 (C. albicans SC5314): 0.78 µM (≈ 0.721 µg/mL)
MIC C. neof 66031 (C. neoformans ATCC 66031): 0.1 µM (≈ 0.0924 µg/mL)
SMILES: C[C@@H]1[C@H](O)[C@@H](C)/C=C/C=C/C=C/C=C/C=C/C=C/C=C/[C@H](O[C@@H]2O[C@H](C)[C@@H](O)[C@H](N)[C@@H]2O)C[C@@H]2O[C@](O)(C[C@@H](O)C[C@@H](O)[C@H](O)CC[C@@H](O)C[C@@H](O)CC(=O)O[C@H]1C)C[C@H](O)[C@H]2C(=O)O [Amp. B, Amphotericin B, reference compound]

MIC ([1]; Table 1, read-out: MIC VRE 700221): 25 µM
MIC ([1]; Table 2, read-out: VRE 700221 MIC): 25 µM
MIC VRE 700221 ([1]; Table 4): 25 µM
MIC K. pneumoniae 13883 ([3]; Table 1): 75^a μM
MIC K. pneu. 13883 ([3]; Table 4): 75a micromolar
MIC ([4]; Table 1): >100 µM
MIC PAO1 ([4]; Table 4): >100 µM
MIC (MRSA BAA-1707; Table 1, read-out: MIC MRSA BAA-1707): 6.25 µM
MIC (MRSA BAA-1707; Table 2, read-out: MRSA BAA-1707 MIC): 6.25 µM
MIC MRSA 1707 (MRSA BAA-1707; Table 4): 6.25 µM
MIC ([5]; MRSA-2 and MRSA BAA-1707, read-out: MIC against two MRSA strains): 6.25 µM
MIC ([5]; Table 1, read-out: MIC MRSA-2): 6.25 µM
MIC MRSA-2 ([5]; Table 4): 6.25 µM
MIC ([6]; Table 1): 50 µM
MIC UAEC-1 ([6]; Table 4): 50 µM
MIC ([7]; Table 1, read-out: MIC MRSE 35984): 3.13 µM
MIC ([7]; Table 2, read-out: MRSE 35984 MIC): 3.13 µM
MIC MRSE 35984 ([7]; Table 4): 3.13 µM
MIC A. baumannii 1794 ([8]; Table 1): 75^a μM
MIC A. bau. 1794 ([8]; Table 4): 75a micromolar
SMILES: CCCCCCCCCCCC[N+](C)(C)Cc1ccccc1.[Cl-] [BAC-12, reference compound]
MRSE 35984 MBEC (MRSE ATCC 35984 biofilms; biofilm): > 2000 µM
MBC (MRSE ATCC 35984 biofilms; planktonic cells): 11.7 µM
HC50 [2]: > 100 µM
VRE 700221 MBEC (VRE ATCC 700221 biofilms; biofilm): 23.5 µM
MBC (VRE ATCC 700221 biofilms; planktonic cells): 31.3 µM
MRSA BAA-1707 MBEC (MRSA BAA-1707 biofilms; biofilm): > 1000 µM
MBC (MRSA BAA-1707 biofilms; planktonic cells): 15.6 µM
